This passage reports residual activity results from the kinase profiling compilation of Christmann-Franck et al. (2016).

Holding throughout (assay): radiometric filter-binding kinase assay, Kinaseprofiler
Assay [1] addresses MAPK1 (human) (UniProt P28482). Particulars: ATP 155 µM.
In assay [2] the target is MTOR (human) (UniProt P42345). The following applies: ATP 70 µM.
In assay [3] the target is NEK2 (human) (UniProt P51955). The following applies: ATP 120 µM.
The target of assay [4] is NLK (human) (UniProt Q9UBE8). Particulars: ATP 200 µM.
NLK (human), sequence (Q9UBE8 whole entry, looked up): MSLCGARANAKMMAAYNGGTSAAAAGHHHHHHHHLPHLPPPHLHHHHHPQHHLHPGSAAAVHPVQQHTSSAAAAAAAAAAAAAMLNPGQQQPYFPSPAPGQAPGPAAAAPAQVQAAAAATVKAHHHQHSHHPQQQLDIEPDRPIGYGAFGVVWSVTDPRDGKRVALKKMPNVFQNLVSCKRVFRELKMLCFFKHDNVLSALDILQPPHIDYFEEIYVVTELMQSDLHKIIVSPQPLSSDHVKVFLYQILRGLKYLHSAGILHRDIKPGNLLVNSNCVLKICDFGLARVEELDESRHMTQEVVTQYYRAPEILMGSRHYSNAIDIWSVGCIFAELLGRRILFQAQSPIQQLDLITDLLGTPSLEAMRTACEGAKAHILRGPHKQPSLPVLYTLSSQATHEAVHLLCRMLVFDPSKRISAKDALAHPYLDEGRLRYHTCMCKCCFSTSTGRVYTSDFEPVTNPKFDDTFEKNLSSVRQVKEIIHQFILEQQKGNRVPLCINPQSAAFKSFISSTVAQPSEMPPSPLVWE
The target of assay [5] is PAK7 (human) (UniProt Q9P286). Particulars: ATP 15 µM.
PAK7 (human), sequence (Q9P286 whole entry, looked up): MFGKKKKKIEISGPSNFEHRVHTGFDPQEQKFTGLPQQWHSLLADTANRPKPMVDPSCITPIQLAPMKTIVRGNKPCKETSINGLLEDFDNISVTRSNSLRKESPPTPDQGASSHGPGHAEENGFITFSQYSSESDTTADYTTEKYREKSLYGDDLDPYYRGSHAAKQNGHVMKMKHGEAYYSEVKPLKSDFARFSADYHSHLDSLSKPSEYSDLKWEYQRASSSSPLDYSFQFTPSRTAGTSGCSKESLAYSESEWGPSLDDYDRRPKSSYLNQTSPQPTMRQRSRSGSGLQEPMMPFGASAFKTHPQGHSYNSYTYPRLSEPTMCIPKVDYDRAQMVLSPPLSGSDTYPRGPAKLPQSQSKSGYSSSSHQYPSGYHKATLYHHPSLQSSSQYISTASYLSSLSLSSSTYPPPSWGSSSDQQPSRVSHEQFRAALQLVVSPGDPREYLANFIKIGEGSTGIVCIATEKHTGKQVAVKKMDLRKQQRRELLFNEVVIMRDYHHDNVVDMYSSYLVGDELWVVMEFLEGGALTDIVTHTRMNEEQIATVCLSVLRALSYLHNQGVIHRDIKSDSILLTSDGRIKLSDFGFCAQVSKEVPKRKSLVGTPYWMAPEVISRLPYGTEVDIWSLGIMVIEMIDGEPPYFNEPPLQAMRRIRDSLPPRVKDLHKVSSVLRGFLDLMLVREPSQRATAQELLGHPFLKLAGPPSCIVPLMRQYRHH

NEK2 (human), sequence (P51955 whole entry, looked up): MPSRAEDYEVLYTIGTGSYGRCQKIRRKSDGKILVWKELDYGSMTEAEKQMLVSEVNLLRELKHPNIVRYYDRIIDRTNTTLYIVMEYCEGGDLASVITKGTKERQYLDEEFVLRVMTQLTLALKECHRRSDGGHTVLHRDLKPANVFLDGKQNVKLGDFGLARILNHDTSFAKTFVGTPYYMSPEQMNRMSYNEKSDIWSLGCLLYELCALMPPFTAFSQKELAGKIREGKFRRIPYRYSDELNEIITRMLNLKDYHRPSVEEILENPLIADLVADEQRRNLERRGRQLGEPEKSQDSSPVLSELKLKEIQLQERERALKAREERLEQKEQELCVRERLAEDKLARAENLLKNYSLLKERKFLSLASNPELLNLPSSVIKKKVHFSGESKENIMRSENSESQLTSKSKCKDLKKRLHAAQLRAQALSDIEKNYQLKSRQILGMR
MAPK1 (human), sequence (P28482 whole entry, looked up): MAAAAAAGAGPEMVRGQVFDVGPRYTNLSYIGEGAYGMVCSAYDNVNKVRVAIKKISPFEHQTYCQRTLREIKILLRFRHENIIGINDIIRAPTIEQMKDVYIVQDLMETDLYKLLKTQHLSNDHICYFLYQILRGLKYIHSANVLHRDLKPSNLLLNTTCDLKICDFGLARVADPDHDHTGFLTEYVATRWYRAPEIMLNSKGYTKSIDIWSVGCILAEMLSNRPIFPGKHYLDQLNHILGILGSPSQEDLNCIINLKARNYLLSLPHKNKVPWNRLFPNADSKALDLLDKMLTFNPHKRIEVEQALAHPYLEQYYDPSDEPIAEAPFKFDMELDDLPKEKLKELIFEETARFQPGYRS

The residual activity is the signal under treatment as a percentage of the control signal. For the compound `O=C1Nc2ccccc2/C1=C1\Nc2ccccc2\C1=N/O`, the residual activity is 104% in assay [1] (compound 1.0 µM); 103% in assay [1] (compound 10.0 µM); 100% in assay [2] (compound 1.0 µM); 98% in assay [2] (compound 10.0 µM); 93% in assay [3] (compound 1.0 µM); 83% in assay [3] (compound 10.0 µM). Besides, the residual activity in assay [4] (compound 1.0 µM) amounted to 82%; in assay [4] (compound 10.0 µM), 67%; in assay [5] (compound 1.0 µM), 64%; in assay [5] (compound 10.0 µM) it was 33%.
